From ChEMBL document CHEMBL3751801, “Synthesis of novel polybrominated benzimidazole derivatives-potential CK2 inhibitors with anticancer and proapoptotic activity” (Bioorg Med Chem, 2016) come the findings set out here.

In test [1] the target is Casein kinase II subunit alpha (Homo sapiens, UniProt P68400). Nature of the test: Inhibition of recombinant human CK2alpha using RRRDDDSDDD substrate peptide by scintillation counter in presence of [32P]ATP.
In test [2] the target is CDK2/Cyclin A2 (Homo sapiens) (UniProt P24941+P20248). Nature of the test: Inhibition of CDK2/CycA2 (unknown origin) assessed as enzyme activity at 5 microM. More on the design: scale not given: the % may be the effect or the level left. The format is protein-complex assay.
Test [3] addresses Casein kinase I isoform alpha (Homo sapiens) (UniProt P48729). Nature of the test: Inhibition of CK1-alpha1 (unknown origin) assessed as enzyme activity at 5 uM. More on the design: scale not given: the % may be the effect or the level left.
The target in test [4] is Dual specificity tyrosine-phosphorylation-regulated kinase 1A (Homo sapiens) (UniProt Q13627). As to the kind of experiment: Inhibition of DYRK1A (unknown origin) assessed as enzyme activity at 5 uM. More on the design: scale not given: the % may be the effect or the level left.
Test [5] deals with Mitogen-activated protein kinase 3 (Homo sapiens) (UniProt P27361). As to the kind of experiment: Inhibition of Erk1 (unknown origin) assessed as enzyme activity at 5 uM. The arrangement: scale not given: the % may be the effect or the level left.
Test [6] addresses Homeodomain-interacting protein kinase 1 (Homo sapiens) (UniProt Q86Z02). As to the kind of experiment: Inhibition of HIPK1 (unknown origin) assessed as enzyme activity at 5 uM. The arrangement: scale not given: the % may be the effect or the level left.
Test [7] addresses Serine/threonine-protein kinase pim-1 (Homo sapiens) (UniProt P11309). Nature of the test: Inhibition of PIM1 (unknown origin) assessed as enzyme activity at 5 uM. The arrangement: scale not given: the % may be the effect or the level left.
The next test is filed under the species Homo sapiens. Nature of the test: Inhibition of PKA (unknown origin) assessed as enzyme activity at 5 uM. More on the design: scale not given: the % may be the effect or the level left.
In test [8] the target is T1, Serine/threonine-protein kinase D2 (Homo sapiens) (UniProt Q9BZL6).
T1 sequence (whole entry): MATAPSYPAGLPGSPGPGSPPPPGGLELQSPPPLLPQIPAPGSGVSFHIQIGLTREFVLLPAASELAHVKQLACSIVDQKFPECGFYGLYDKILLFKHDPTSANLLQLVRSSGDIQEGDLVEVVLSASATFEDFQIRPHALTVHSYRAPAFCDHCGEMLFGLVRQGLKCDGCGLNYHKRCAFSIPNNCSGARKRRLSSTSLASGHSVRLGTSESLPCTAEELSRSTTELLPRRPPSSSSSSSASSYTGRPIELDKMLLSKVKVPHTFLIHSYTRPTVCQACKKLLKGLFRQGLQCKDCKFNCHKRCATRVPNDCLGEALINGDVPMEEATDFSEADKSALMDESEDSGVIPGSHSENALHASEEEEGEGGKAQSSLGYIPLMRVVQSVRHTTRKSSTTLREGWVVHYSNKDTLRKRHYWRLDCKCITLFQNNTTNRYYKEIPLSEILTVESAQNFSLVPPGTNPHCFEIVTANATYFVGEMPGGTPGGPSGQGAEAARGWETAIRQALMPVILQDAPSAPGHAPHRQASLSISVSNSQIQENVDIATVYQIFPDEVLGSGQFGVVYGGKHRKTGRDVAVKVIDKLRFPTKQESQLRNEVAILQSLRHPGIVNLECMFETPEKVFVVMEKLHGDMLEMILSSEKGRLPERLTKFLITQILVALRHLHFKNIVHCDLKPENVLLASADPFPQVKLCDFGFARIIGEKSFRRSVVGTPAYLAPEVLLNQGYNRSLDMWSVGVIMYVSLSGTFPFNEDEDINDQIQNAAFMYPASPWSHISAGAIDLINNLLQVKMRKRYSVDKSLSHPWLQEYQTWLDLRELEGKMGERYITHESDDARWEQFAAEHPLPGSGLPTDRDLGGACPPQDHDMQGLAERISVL
As to the kind of experiment: Inhibition of PRKD2 (unknown origin) assessed as enzyme activity at 5 uM. More on the design: scale not given: the % may be the effect or the level left.

Test [9] has as its system CCRF-CEM. Nature of the test: Cytotoxicity against human CCRF-CEM cells assessed as cell viability at 10 uM after 24 hrs by MTT assay. To be noted: read-out: Activity. The format is functional. On the technique in general: Tetrazolium dyes change colour on reduction, which living cells bring about.
Test [10] has as its system CCRF-CEM. As to the kind of experiment: Cytotoxicity against human CCRF-CEM cells assessed as cell viability at 20 uM after 24 hrs by MTT assay. To be noted: read-out: Activity. The format is functional.
Test [11] has as its system CCRF-CEM. As to the kind of experiment: Cytotoxicity against human CCRF-CEM cells assessed as cell viability at 50 uM after 24 hrs by MTT assay. To be noted: read-out: Activity. The format is functional.
For test [12], the system named is MCF7. Nature of the test: Cytotoxicity against human MCF7 cells assessed as cell viability at 10 uM after 24 hrs by MTT assay. In kind it is functional. To be noted: MCF7, 24 h, read-out: Activity.
Test [13] deals with MCF7. Nature of the test: Cytotoxicity against human MCF7 cells assessed as cell viability at 20 uM after 24 hrs by MTT assay. In kind it is functional. To be noted: MCF7, 24 h, read-out: Activity.
Test [14] has as its system MCF7. Nature of the test: Cytotoxicity against human MCF7 cells assessed as cell viability at 50 uM after 24 hrs by MTT assay. To be noted: MCF7, 24 h, read-out: Activity. In kind it is functional.
The test system of test [15] is CCRF-CEM. Nature of the test: Induction of apoptosis in human CCRF-CEM cells assessed as viable cells at 10 uM after 24 hrs by annexinV and propidium iodide staining based FACS analysis (reference value: 96.4 +/- 1.2%). Particulars: read-out: Activity. The format is functional. For orientation: In flow cytometry, cells or beads pass a laser one at a time.
Test [16] relates to CCRF-CEM. Nature of the test: Induction of apoptosis in human CCRF-CEM cells assessed as viable cells at 50 uM after 24 hrs by annexinV and propidium iodide staining based FACS analysis (reference value: 96.4 +/- 1.2%). Particulars: read-out: Activity. The format is functional.
For test [17], the system named is CCRF-CEM. Nature of the test: Induction of apoptosis in human CCRF-CEM cells assessed as early apoptotic cells at 10 uM after 24 hrs by annexinV and propidium iodide staining based FACS analysis (reference value: 1.5 +/- 0.8%). In kind it is functional.
In test [18] the test system is CCRF-CEM. Nature of the test: Induction of apoptosis in human CCRF-CEM cells assessed as early apoptotic cells at 50 uM after 24 hrs by annexinV and propidium iodide staining based FACS analysis (reference value: 1.5 +/- 0.8%). The format is functional.
Test [19] concerns CCRF-CEM. Nature of the test: Induction of apoptosis in human CCRF-CEM cells assessed as late apoptotic cells at 10 uM after 24 hrs by annexinV and propidium iodide staining based FACS analysis (reference value: 1.9 +/- 0.5%). In kind it is functional.
In test [20] the test system is CCRF-CEM. Nature of the test: Induction of apoptosis in human CCRF-CEM cells assessed as late apoptotic cells at 50 uM after 24 hrs by annexinV and propidium iodide staining based FACS analysis (reference value: 1.9 +/- 0.5%). The format is functional.
For test [21], the system named is CCRF-CEM. Nature of the test: Induction of apoptosis in human CCRF-CEM cells assessed as necrotic cells at 10 uM after 24 hrs by annexinV and propidium iodide staining based FACS analysis (reference value: 0.1 +/- 0.1%). The format is functional.
Test [22] concerns CCRF-CEM. As to the kind of experiment: Induction of apoptosis in human CCRF-CEM cells assessed as necrotic cells at 50 uM after 24 hrs by annexinV and propidium iodide staining based FACS analysis (reference value: 0.1 +/- 0.1%). The format is functional.
For test [23], the target named is Casein kinase II (Homo sapiens) (UniProt P67870+P68400+P19784). To be noted: CCRF-CEM, 5 uM.

What is called Ki is a measure of affinity in units of concentration, obtained from inhibition or displacement. A word on the inhibition: it is how much of the control response was suppressed. Take `Cc1nc2c(Br)c(Br)c(Br)c(Br)c2[nH]1`: the Ki in test [1] came out at 1.11 µM. Besides, the Activity in test [2] turned out to be 20%; in [3], 84%; in [4], 17%; in [5], 92%; in test [6], 43%; in test [7], 6%. The Activity in the test filed under Homo sapiens came to 113%; in test [8], 14%; in the test with CCRF-CEM [17], 47.3%; in the test on CCRF-CEM [18], 59.8%; with CCRF-CEM [19], 15.3%; in the test on CCRF-CEM [20] it was 27.3%. In addition, the Activity with CCRF-CEM [21] is given as 0.5%; in the test with CCRF-CEM [22] it was 0.4%. The viability at 10 µM turned out to be 29% in the test with CCRF-CEM [9], 76% in the test on MCF7 [12] and 36.7% in the test with CCRF-CEM [15]. For the same compound, the figures for the viability at 20 µM in the test on CCRF-CEM [10] and with MCF7 [13] were 15% and 66%, respectively. In addition, the viability at 50 µM in the test with CCRF-CEM [11] amounted to 6%; in the test on MCF7 [14], 33%; with CCRF-CEM [16], 14.2%. The inhibition in test [23] turned out to be 20%.
